# In publication PMC9026428, “New Peptide Based Fluconazole Conjugates with Expanded Molecular Targets” (Pharmaceutics, 2022):
# Where two headings read alike, the source gives them in different places. Non-standard residues stand in square brackets, D forms with d. Residues, ends and D or L forms follow the SMILES beside them. *: point of attachment. X1 = O=C(CCCC(=O)*)OC(Cn1cncn1)(Cn1cncn1)c1ccc(F)cc1F; Nle = CCCC[C@H](N)C(=O)O
# Key:
# [1] = MTT cytotoxicity assay; conditions: human
# Method: (§1) The assessment of antifungal potential of synthesized agents was carried out using four reference strains (C. albicans ATCC 10231, C. albicans SC5314, C. glabrata DSM […] and C. krusei DSM […]) and six clinical isolates of fluconazole-resistant C. albicans that were provided by the Hospital of Medical University of Gdansk, Poland. Moreover, four C. albicans isolates, assigned as B3, B4, Gu4 and Gu5, were used for investigation whether the synthesized fluconazole derivatives were effectively removed from the yeast cells by the drug efflux transporters, as in the case of fluconazole. These strains were kindly provided by Prof. Joachim Morschhäuser from University of Würzburg (Würzburg, Germany). Strains Gu4 and B3 were fluconazole-sensitive isolates obtained from early infection episodes, while Gu5 and B4 were the corresponding fluconazole-resistant isolates obtained from later episodes in the same patients treated with fluconazole. The lack of susceptibility of the Gu5 strain to fluconazole was a consequence of overexpression of CDR1/2 genes encoding ABC transporters, whereas the resistance of B4 strain was caused by overexpression of the MDR1 gene encoding a membrane transport protein of the major facilitator superfamily (MFS). All of these Candida spp. strains were maintained on YPD agar plates (1% (w/v) yeast extract, 2% (w/v) peptone, 2% (w/v) glucose, 2% (w/v) agar) at 30 °C for 16–24 h. For all of the assays aimed at assessing the antifungal potential of the synthesized agents, the yeasts were cultivated at 37 °C in RPMI 1640 medium (with L-glutamine, without sodium bicarbonate, Sigma-Aldrich, Darmstadt, Germany)) buffered to a pH of 7.0 with 0.165 M morpholinepropanesulfonic acid (MOPS) buffer (Sigma-Aldrich). In this study, we used the human foreskin fibroblast cell line Hs27 (ATCC CRL 1634TM) and the human endothelial cell line HUVEC (C2519A), purchased from Lonza Group AG, (Basel, Switzerland). The Hs27 cells were maintained in cell media consisting of Dulbecco’s modified Eagles medium (DMEM), (Corning, Arizona, USA) with 10% fetal bovine serum (FBS), (Corning, Port Elizabeth, South Africa), 1% penicillin/streptomycin (Sigma-Aldrich Inc., Darmstadt, Germany), and 1% L-glutamine (Corning, Arizona, USA). The human endothelial cell line was maintained in cell media consisting of Endothelial Cell Growth Medium-2 Single Quots Kit (Lonza, USA). Both cell lines were cultured in an incubator at 37 °C and 5% CO2.
# (§2) Hs27 and HUVEC mammalian cell lines were cultured as mentioned above. Once cell lines were about 80% confluent, cells were counted by a hemacytometer (Hausser Scientific, Horsham, PA, USA) and plated in 96-well microtiter plates at concentrations of 4500 cells per well for Hs27 and 2000 cells per well for HUVEC. Cells were allowed to attach overnight. […] The final concentration of DMSO was ensured to be around 1% in all experiments. Cells were incubated with studied compounds for 72 h at 37 °C and 5% CO2. After incubation, 20 µL of MTT solution in PBS (4 mg/mL) was added to all wells and incubated further for 3 h at 37 °C. Formed formazan crystals were dissolved in 150 µL DMSO, and absorbance was measured using an Asys UVM340 multi-well plate reader at λ = 540 nm. Cytotoxicity was determined compared to drug-free control. All experiments were performed in biological triplicates.
# [2] = system: HUVEC cells (human umbilical venous endothelial primary cells); assay: MTT cytotoxicity assay
# Method: as §1, §2
# [3] = MTT cytotoxicity assay; conditions: human; remark: listed apart in the source
# Method: as §1, §2
# [4] = system: Hs27 cells (human foreskin fibroblast cell line); assay: MTT cytotoxicity assay
# Method: as §1, §2
# [5] = system: Candida albicans 604; assay: microbe, parasite or virus in culture; conditions: 37 °C; for MIC50 / MIC90: C. albicans 604 (fluconazole-resistant clinical isolate), RPMI 1640/MOPS pH 7.0, 24 h, triplicate; for MIC50: at least 50% growth inhibition vs growth control; for MIC90: lowest concentration with no visible growth
# Method: as §1
# (§3) Antifungal activity of the tested compounds against yeast cells was determined in 96-well plates as described in the CLSI document M27-A3 [39], with minor modifications (CLSI, 2008). […] The plates were incubated for 24 h at 37 °C. Each test was performed in triplicate. The final concentration of DMSO was ensured to be around 1% in all experiments.
# (§4) For determination of minimum fungicidal concentrations (MFC), small aliquots of suspensions (around 10 μL) from each well were transferred using the pipette to YPD agar plates without inhibitors and incubated for 24 h at 37 °C.
# [6] = system: Candida albicans 574; assay: microbe, parasite or virus in culture; conditions: C. albicans 574 (fluconazole-resistant clinical isolate), RPMI 1640/MOPS pH 7.0, 24 h, 37 °C, triplicate; for MIC50: at least 50% growth inhibition vs growth control; for MIC90: lowest concentration with no visible growth
# Method: as §1, §3, §4
# [7] = system: Candida albicans Gu5; assay: microbe, parasite or virus in culture; conditions: C. albicans Gu5 (fluconazole-resistant, CDR1/2 overexpression), RPMI 1640/MOPS pH 7.0, 24 h, 37 °C, triplicate; for MIC50: at least 50% growth inhibition vs growth control; for MIC90: lowest concentration with no visible growth
# Method: as §1, §3, §4
# [8] = system: Candida albicans Gu4; assay: microbe, parasite or virus in culture; conditions: 37 °C; for MIC50 / MIC90: C. albicans Gu4 (fluconazole-sensitive isolate), RPMI 1640/MOPS pH 7.0, 24 h, triplicate; for MIC50: at least 50% growth inhibition vs growth control; for MIC90: lowest concentration with no visible growth
# Method: as §1, §3, §4
# [9] = system: Candida albicans 48; assay: microbe, parasite or virus in culture; conditions: 37 °C; for MIC50 / MIC90: C. albicans 48 (fluconazole-resistant clinical isolate), RPMI 1640/MOPS pH 7.0, 24 h, triplicate; for MIC50: at least 50% growth inhibition vs growth control; for MIC90: lowest concentration with no visible growth
# Method: as §1, §3, §4
# [10] = system: Candida albicans ATCC 10231; assay: microbe, parasite or virus in culture; conditions: C. albicans ATCC 10231, 37 °C; for MIC50 / MIC90: RPMI 1640/MOPS pH 7.0, 24 h, triplicate; for MIC50: at least 50% growth inhibition vs growth control; for MIC90: lowest concentration with no visible growth
# Method: as §1, §3, §4
# [11] = system: Candida krusei DSM 11226; assay: microbe, parasite or virus in culture; conditions: C. krusei DSM 11226, 37 °C; for MIC50 / MIC90: RPMI 1640/MOPS pH 7.0, 24 h, triplicate; for MIC50: at least 50% growth inhibition vs growth control; for MIC90: lowest concentration with no visible growth
# Method: as §1, §3, §4
# [12] = system: Candida albicans 190; assay: microbe, parasite or virus in culture; conditions: 37 °C; for MIC50 / MIC90: C. albicans 190 (fluconazole-resistant clinical isolate), RPMI 1640/MOPS pH 7.0, 24 h, triplicate; for MIC50: at least 50% growth inhibition vs growth control; for MIC90: lowest concentration with no visible growth
# Method: as §1, §3, §4
# [13] = HUVEC cells, MTT, 72 h, 37 °C, 100–1.5 μM, biological triplicates
# [14] = Hs27 cells, MTT, 72 h, 37 °C, 100–1.5 μM, biological triplicates
# [15] = aliquots plated on YPD agar, 24 h, lowest concentration with no colony growth
Compound,"In vitro cytotoxicity IC90 ± SEM [2, 13] [µM]","In vitro cytotoxicity IC90 ± SEM [4, 14] [µM]",MIC50 [5] [µM],MIC90 [5] [µM],MIC50 [6] [µM],MIC90 [6] [µM],MIC50 [7] [µM],MIC90 [7] [µM],MIC50 [8] [µM],MIC90 [8] [µM],MIC50 [9] [µM],MIC90 [9] [µM],MIC50 [10] [µM],MIC90 [10] [µM],MIC50 [11] [µM],MIC90 [11] [µM],MIC50 [12] [µM],MIC90 [12] [µM],also measured
"CCCC[C@H](NC(=O)CCCC(=O)OC(Cn1cncn1)(Cn1cncn1)c1ccc(F)cc1F)C(=O)N[C@@H](Cc1ccccc1)C(=O)N[C@@H](CCCCN)C(=O)N[C@@H](CS)C(=O)N[C@@H](CCCNC(=N)N)C(=O)N[C@@H](CCCNC(=N)N)C(=O)N[C@@H](Cc1c[nH]c2ccccc12)C(=O)N[C@@H](CCC(N)=O)C(=O)N[C@@H](Cc1c[nH]c2ccccc12)C(=O)N[C@@H](CCCNC(=N)N)C(=O)N[C@@H](CCCC)C(=O)N[C@@H](CCCCN)C(=O)N[C@@H](CCCCN)C(=O)N[C@@H](CC(C)C)C(=O)NCC(N)=O [FLCpOH-LFacinB[Nle^1,11]-NH2] (X1-[Nle]FKCRRWQWR[Nle]KKLG-NH2)",>100,>100,45,90,45,62,>250,>250,125,250,250,>250,45,62,31,62,90,125,IC50 at 72 h [1]: 75.6 ± 1.73 µM; IC50 at 72 h [3]: > 100 µM
O=C(O)CCCC(=O)OC(Cn1cncn1)(Cn1cncn1)c1ccc(F)cc1F [FLCpOH],,,>250,>250,>250,>250,>250,>250,>250,>250,>250,>250,>250,>250,>250,>250,>250,>250,IC50 [2]: > 100 µM; In vitro cytotoxicity IC90 ± SEM [2]: >100 µM; IC50 [4]: > 100 µM; In vitro cytotoxicity IC90 ± SEM [4]: >100 µM
CC[C@H](C)[C@H](NC(=O)[C@H](CCCCN)NC(=O)[C@H](CCCCN)NC(=O)[C@H](C)NC(=O)[C@H](CC(C)C)NC(=O)[C@H](C)NC(=O)[C@H](C)NC(=O)[C@H](CC(C)C)NC(=O)[C@H](C)NC(=O)[C@H](CCCCN)NC(=O)[C@H](CC(C)C)NC(=O)[C@H](CC(N)=O)NC(=O)[C@@H](NC(=O)[C@H](CCCCN)NC(=O)CNC(=O)[C@H](CC(C)C)NC(=O)[C@H](CC(C)C)NC(=O)[C@H](Cc1ccc(O)cc1)NC(=O)CNC(=O)[C@H](C)NC(=O)CCCC(=O)OC(Cn1cncn1)(Cn1cncn1)c1ccc(F)cc1F)[C@@H](C)CC)C(=O)N[C@@H](CC(C)C)C(N)=O [FLCpOH-TP10-NH2],34.30 ± 1.00,28.81 ± 0.87,45,62,45,62,62,125,45,62,45,62,15,31,62,125,45,62,"MFC ([5]; C. albicans 604, aliquots plated on YPD agar, 24 h, lowest concentration with no colony growth): 250 µM; MFC ([8]; C. albicans Gu4, aliquots plated on YPD agar, 24 h, lowest concentration with no colony growth): 62 µM; MFC ([9]; C. albicans 48, aliquots plated on YPD agar, 24 h, lowest concentration with no colony growth): 250 µM; MFC [10, 15]: 62 µM; MFC [11, 15]: 250 µM; MFC ([12]; C. albicans 190, aliquots plated on YPD agar, 24 h, lowest concentration with no colony growth): 250 µM"
